In PMC12155096 (International Journal of Molecular Sciences, 2025):
Structures can show the parent of a compound that is named as a salt.

Target: human CYP2D6 (Homo sapiens, UniProt P10635)
Assay: biochemical
Settings: not given; call rule not given here

Sequence of human CYP2D6 (P10635 whole entry): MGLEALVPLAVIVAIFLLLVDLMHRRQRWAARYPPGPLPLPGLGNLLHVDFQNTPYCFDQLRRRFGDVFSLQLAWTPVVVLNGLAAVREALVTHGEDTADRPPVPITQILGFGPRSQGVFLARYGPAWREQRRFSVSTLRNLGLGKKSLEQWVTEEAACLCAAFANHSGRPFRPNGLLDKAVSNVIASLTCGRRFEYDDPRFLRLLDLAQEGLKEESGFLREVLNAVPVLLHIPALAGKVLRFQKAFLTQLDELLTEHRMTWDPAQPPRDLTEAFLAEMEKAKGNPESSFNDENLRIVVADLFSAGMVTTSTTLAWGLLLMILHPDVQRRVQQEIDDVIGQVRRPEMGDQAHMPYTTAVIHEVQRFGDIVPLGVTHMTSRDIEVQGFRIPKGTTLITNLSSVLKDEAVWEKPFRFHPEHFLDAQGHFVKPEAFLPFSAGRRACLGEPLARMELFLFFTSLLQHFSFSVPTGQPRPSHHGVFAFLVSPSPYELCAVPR

Row | Compound | IC50 [µM]
1 | Nc1c(Cl)c(Cl)c(Cl)c(Cl)c1Cl [Pentachloroaniline] | 75.3
2 | CCOP(=S)(OCC)O/N=C(\C#N)c1ccccc1 [Phoxim] | 22.5
3 | CCOC(=O)c1c(N)sc2c1CCN(Cc1ccccc1)C2 [Tinoridine] | 0.02 ± 0.01
4 | CN(C/C=C/C#CC(C)(C)C)Cc1cccc2ccccc12 [terbinafine, reference compound] | 0.4

Same assay, conditions: CYP2D6 AC50 (half-maximal activity concentration)

Row | Compound | AC50 [µM]
5 | [O-][n+]1ccccc1SSc1cccc[n+]1[O-] [Dipyrithione] | 1.66
6 | Cl[C@H]1[C@H](Cl)[C@@H](Cl)[C@H](Cl)[C@@H](Cl)[C@H]1Cl [delta-Hexachlorocyclohexane] | 48.8

Same assay, conditions: CYP2D6 IC50

Row | Compound | IC50 [µM]
7 | Cc1cccc(Cc2c[nH]cn2)c1C [Detomidine hydrochloride] | 2.37
8 | [O-][n+]1ccccc1SSc1cccc[n+]1[O-] [Dipyrithione] | 1.66
9 | CC1=C(C)C(=O)C(CCCCC#CCCCC#CCO)=C(C)C1=O [Docebenone] | 25.8
10 | CCN(CC)CCOC(=O)C(c1ccccc1)C1CCCCC1 (centres unmarked) [Drofenine hydrochloride] | 1.19
11 | CC[n+]1c(-c2ccccc2)c2cc(N)ccc2c2ccc(N)cc21 [Ethidium bromide] | 0.93
12 | CCOC(=O)CC(SP(=S)(OC)OC)C(=O)OCC (centres unmarked) [Malathion] | 58.1
13 | Cc1cc(O)c2ccccc2c1O [Menadiol] | 19.3
14 | CCCN1C[C@H](CSC)C[C@@H]2c3cccc4[nH]cc(c34)C[C@H]21 [Pergolide methanesulfonate] | 0.15
15 | c1cc2ccc3cccc4ccc(c1)c2c34 [Pyrene] | 47.1

Same assay, conditions: CYP2D6 IC50 (half-maximal inhibitory concentration)

Row | Compound | IC50 [µM]
16 | Nc1ccc2c(c1)CN1C(=O)c3ccccc3C1=N2 [Daniquidone] | 4.39
17 | CN1C[C@H](C(=O)N[C@]2(C)O[C@@]3(O)[C@@H]4CCCN4C(=O)[C@H](Cc4ccccc4)N3C2=O)C=C2c3cccc4[nH]cc(c34)C[C@H]21 [Ergotamine D-tartrate] | 31.3
18 | O=C(NCCc1c[nH]c2ccccc12)c1cccnc1 [Nicotredole] | 31
19 | c1ccc2c(c1)Nc1ccccc1S2 [Phenothiazine] | 30.8
20 | Cl[C@H]1[C@H](Cl)[C@@H](Cl)[C@H](Cl)[C@@H](Cl)[C@H]1Cl [delta-Hexachlorocyclohexane] | 48.8

Target: human CYP2C9 (Homo sapiens, UniProt P11712)
Assay: biochemical
Settings: not given

Sequence of human CYP2C9 (P11712 whole entry): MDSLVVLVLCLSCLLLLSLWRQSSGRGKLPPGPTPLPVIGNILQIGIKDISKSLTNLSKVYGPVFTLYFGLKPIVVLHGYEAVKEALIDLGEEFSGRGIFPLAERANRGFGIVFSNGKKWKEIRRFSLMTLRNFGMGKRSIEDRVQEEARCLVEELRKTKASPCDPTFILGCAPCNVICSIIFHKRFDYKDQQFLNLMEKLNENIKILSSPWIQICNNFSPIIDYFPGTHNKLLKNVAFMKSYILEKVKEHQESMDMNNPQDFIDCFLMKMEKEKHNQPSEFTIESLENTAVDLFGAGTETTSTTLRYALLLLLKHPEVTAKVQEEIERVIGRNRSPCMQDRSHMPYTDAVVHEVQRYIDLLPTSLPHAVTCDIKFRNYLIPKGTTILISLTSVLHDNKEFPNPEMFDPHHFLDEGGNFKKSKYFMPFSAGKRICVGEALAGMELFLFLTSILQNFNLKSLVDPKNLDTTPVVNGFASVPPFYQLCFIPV

Row | Compound | IC50 [µM]
21 | Nc1c(Cl)c(Cl)c(Cl)c(Cl)c1Cl [Pentachloroaniline] | 51.5
22 | CCOP(=S)(OCC)O/N=C(\C#N)c1ccccc1 [Phoxim] | 2.04
23 | CCOC(=O)c1c(N)sc2c1CCN(Cc1ccccc1)C2 [Tinoridine] | 6.91 ± 5.97
24 | CN(C/C=C/C#CC(C)(C)C)Cc1cccc2ccccc12 [terbinafine, reference compound] | 15.5

Same assay, conditions: CYP2C9 AC50 (half-maximal activity concentration)

Row | Compound | AC50 [µM]
25 | [O-][n+]1ccccc1SSc1cccc[n+]1[O-] [Dipyrithione] | 1.72
26 | Cl[C@H]1[C@H](Cl)[C@@H](Cl)[C@H](Cl)[C@@H](Cl)[C@H]1Cl [delta-Hexachlorocyclohexane] | 25.6

Same assay, conditions: CYP2C9 IC50

Row | Compound | IC50 [µM]
27 | Cc1cccc(Cc2c[nH]cn2)c1C [Detomidine hydrochloride] | 0.41
28 | [O-][n+]1ccccc1SSc1cccc[n+]1[O-] [Dipyrithione] | 1.72
29 | CC1=C(C)C(=O)C(CCCCC#CCCCC#CCO)=C(C)C1=O [Docebenone] | 5.22
30 | CCN(CC)CCOC(=O)C(c1ccccc1)C1CCCCC1 (centres unmarked) [Drofenine hydrochloride] | 26
31 | CC[n+]1c(-c2ccccc2)c2cc(N)ccc2c2ccc(N)cc21 [Ethidium bromide] | 47.7
32 | CCOC(=O)CC(SP(=S)(OC)OC)C(=O)OCC (centres unmarked) [Malathion] | 1.78
33 | Cc1cc(O)c2ccccc2c1O [Menadiol] | 12.2
34 | CCCN1C[C@H](CSC)C[C@@H]2c3cccc4[nH]cc(c34)C[C@H]21 [Pergolide methanesulfonate] | 6.26
35 | c1cc2ccc3cccc4ccc(c1)c2c34 [Pyrene] | 60.5

Same assay, conditions: CYP2C9 IC50 (half-maximal inhibitory concentration)

Row | Compound | IC50 [µM]
36 | Nc1ccc2c(c1)CN1C(=O)c3ccccc3C1=N2 [Daniquidone] | 5.05
37 | CN1C[C@H](C(=O)N[C@]2(C)O[C@@]3(O)[C@@H]4CCCN4C(=O)[C@H](Cc4ccccc4)N3C2=O)C=C2c3cccc4[nH]cc(c34)C[C@H]21 [Ergotamine D-tartrate] | 16.5
38 | O=C(NCCc1c[nH]c2ccccc12)c1cccnc1 [Nicotredole] | 15.1
39 | c1ccc2c(c1)Nc1ccccc1S2 [Phenothiazine] | 40.4
40 | Cl[C@H]1[C@H](Cl)[C@@H](Cl)[C@H](Cl)[C@@H](Cl)[C@H]1Cl [delta-Hexachlorocyclohexane] | 25.6

Target: T1, human CYP1A2 (Homo sapiens, UniProt P05177)
T1 sequence (P05177 1-516): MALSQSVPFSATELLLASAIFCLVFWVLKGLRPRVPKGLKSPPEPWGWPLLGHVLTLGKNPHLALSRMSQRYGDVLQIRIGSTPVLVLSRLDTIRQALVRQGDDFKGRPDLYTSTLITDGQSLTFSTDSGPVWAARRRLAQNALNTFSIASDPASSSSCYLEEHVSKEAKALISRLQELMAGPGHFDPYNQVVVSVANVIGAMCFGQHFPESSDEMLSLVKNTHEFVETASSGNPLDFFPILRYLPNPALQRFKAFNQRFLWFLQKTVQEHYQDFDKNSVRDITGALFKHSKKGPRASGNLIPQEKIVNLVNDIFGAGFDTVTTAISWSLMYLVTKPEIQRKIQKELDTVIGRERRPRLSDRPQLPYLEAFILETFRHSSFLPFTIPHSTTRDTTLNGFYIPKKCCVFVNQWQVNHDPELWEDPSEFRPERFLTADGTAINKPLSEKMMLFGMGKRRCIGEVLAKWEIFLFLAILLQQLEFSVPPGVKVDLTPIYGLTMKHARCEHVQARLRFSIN
Assay: biochemical
Settings: not given

Row | Compound | IC50 [µM]
41 | CCOC(=O)c1c(N)sc2c1CCN(Cc1ccccc1)C2 [Tinoridine] | 16.1 ± 1.09
42 | CN(C/C=C/C#CC(C)(C)C)Cc1cccc2ccccc12 [terbinafine, reference compound] | 16.8

Same assay, conditions: CYP1A2 AC50 (half-maximal activity concentration)

Row | Compound | AC50 [µM]
43 | [O-][n+]1ccccc1SSc1cccc[n+]1[O-] [Dipyrithione] | 3.2
44 | Cl[C@H]1[C@H](Cl)[C@@H](Cl)[C@H](Cl)[C@@H](Cl)[C@H]1Cl [delta-Hexachlorocyclohexane] | 35.7

Same assay, conditions: CYP1A2 IC50

Row | Compound | IC50 [µM]
45 | Cc1cccc(Cc2c[nH]cn2)c1C [Detomidine hydrochloride] | 1.15
46 | [O-][n+]1ccccc1SSc1cccc[n+]1[O-] [Dipyrithione] | 3.2
47 | CC1=C(C)C(=O)C(CCCCC#CCCCC#CCO)=C(C)C1=O [Docebenone] | 3.27
48 | CCN(CC)CCOC(=O)C(c1ccccc1)C1CCCCC1 (centres unmarked) [Drofenine hydrochloride] | 5.85
49 | CC[n+]1c(-c2ccccc2)c2cc(N)ccc2c2ccc(N)cc21 [Ethidium bromide] | 9.62
50 | CCOC(=O)CC(SP(=S)(OC)OC)C(=O)OCC (centres unmarked) [Malathion] | 2.12
51 | Cc1cc(O)c2ccccc2c1O [Menadiol] | 0.8
52 | Nc1c(Cl)c(Cl)c(Cl)c(Cl)c1Cl [Pentachloroaniline] | 0.85
53 | CCCN1C[C@H](CSC)C[C@@H]2c3cccc4[nH]cc(c34)C[C@H]21 [Pergolide methanesulfonate] | 6.54
54 | CCOP(=S)(OCC)O/N=C(\C#N)c1ccccc1 [Phoxim] | 0.99
55 | c1cc2ccc3cccc4ccc(c1)c2c34 [Pyrene] | 0.64

Same assay, conditions: CYP1A2 IC50 (half-maximal inhibitory concentration)

Row | Compound | IC50 [µM]
56 | Nc1ccc2c(c1)CN1C(=O)c3ccccc3C1=N2 [Daniquidone] | 0.67
57 | CN1C[C@H](C(=O)N[C@]2(C)O[C@@]3(O)[C@@H]4CCCN4C(=O)[C@H](Cc4ccccc4)N3C2=O)C=C2c3cccc4[nH]cc(c34)C[C@H]21 [Ergotamine D-tartrate] | 22.6
58 | O=C(NCCc1c[nH]c2ccccc12)c1cccnc1 [Nicotredole] | 14.6
59 | c1ccc2c(c1)Nc1ccccc1S2 [Phenothiazine] | 0.97
60 | Cl[C@H]1[C@H](Cl)[C@@H](Cl)[C@H](Cl)[C@@H](Cl)[C@H]1Cl [delta-Hexachlorocyclohexane] | 35.7

Target: Photinus pyralis (firefly) luciferase (Photinus pyralis, UniProt P08659)
Assay: biochemical
Type: biochemical
Settings: not given

Sequence of Photinus pyralis (firefly) luciferase (P08659 whole entry): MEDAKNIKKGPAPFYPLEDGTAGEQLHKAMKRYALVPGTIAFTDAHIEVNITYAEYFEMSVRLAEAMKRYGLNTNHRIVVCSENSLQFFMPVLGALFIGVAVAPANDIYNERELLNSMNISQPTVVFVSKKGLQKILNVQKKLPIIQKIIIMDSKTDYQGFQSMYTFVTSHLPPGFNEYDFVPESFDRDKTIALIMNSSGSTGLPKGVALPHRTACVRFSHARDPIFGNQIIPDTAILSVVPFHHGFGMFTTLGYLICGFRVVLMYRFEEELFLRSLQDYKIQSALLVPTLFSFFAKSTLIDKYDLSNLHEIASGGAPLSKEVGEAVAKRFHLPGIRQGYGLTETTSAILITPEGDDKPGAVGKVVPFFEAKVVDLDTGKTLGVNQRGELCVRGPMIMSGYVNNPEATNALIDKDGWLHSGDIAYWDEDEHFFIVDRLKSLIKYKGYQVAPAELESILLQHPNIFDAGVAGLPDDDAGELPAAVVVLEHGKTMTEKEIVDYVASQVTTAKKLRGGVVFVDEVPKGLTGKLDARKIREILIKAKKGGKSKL

Row | Compound | IC50 [µM] | Luciferase IC50 | Luciferase IC50 (half-maximal inhibitory concentration)
61 | Nc1ccc2c(c1)CN1C(=O)c3ccccc3C1=N2 [Daniquidone] | 0.36 |  | 
62 | Cc1cccc(Cc2c[nH]cn2)c1C [Detomidine hydrochloride] |  | Inactive | 
63 | [O-][n+]1ccccc1SSc1cccc[n+]1[O-] [Dipyrithione] | 0.45 |  | 
64 | CC1=C(C)C(=O)C(CCCCC#CCCCC#CCO)=C(C)C1=O [Docebenone] |  | Inactive | 
65 | CCN(CC)CCOC(=O)C(c1ccccc1)C1CCCCC1 (centres unmarked) [Drofenine hydrochloride] |  | Inactive | 
66 | CN1C[C@H](C(=O)N[C@]2(C)O[C@@]3(O)[C@@H]4CCCN4C(=O)[C@H](Cc4ccccc4)N3C2=O)C=C2c3cccc4[nH]cc(c34)C[C@H]21 [Ergotamine D-tartrate] | 42.1 |  | 
67 | CC[n+]1c(-c2ccccc2)c2cc(N)ccc2c2ccc(N)cc21 [Ethidium bromide] |  | Inactive | 
68 | CCOC(=O)CC(SP(=S)(OC)OC)C(=O)OCC (centres unmarked) [Malathion] | 37 |  | 
69 | Cc1cc(O)c2ccccc2c1O [Menadiol] |  | Inactive | 
70 | O=C(NCCc1c[nH]c2ccccc12)c1cccnc1 [Nicotredole] | 35.1 |  | 
71 | Nc1c(Cl)c(Cl)c(Cl)c(Cl)c1Cl [Pentachloroaniline] |  | Inactive | 
72 | CCCN1C[C@H](CSC)C[C@@H]2c3cccc4[nH]cc(c34)C[C@H]21 [Pergolide methanesulfonate] |  | Inactive | 
73 | c1ccc2c(c1)Nc1ccccc1S2 [Phenothiazine] | 58.1 |  | 
74 | CCOP(=S)(OCC)O/N=C(\C#N)c1ccccc1 [Phoxim] |  | Inactive | 
75 | c1cc2ccc3cccc4ccc(c1)c2c34 [Pyrene] |  | Inactive | 
76 | CCOC(=O)c1c(N)sc2c1CCN(Cc1ccccc1)C2 [Tinoridine] |  | Inactive | 
77 | Cl[C@H]1[C@H](Cl)[C@@H](Cl)[C@H](Cl)[C@@H](Cl)[C@H]1Cl [delta-Hexachlorocyclohexane] |  |  | Inactive
78 | CN(C/C=C/C#CC(C)(C)C)Cc1cccc2ccccc12 [terbinafine, reference compound] |  | Inactive | 

Target: human CYP2C19 (Homo sapiens, UniProt P33261)
Assay: biochemical
Settings: not given

Sequence of human CYP2C19 (P33261 whole entry): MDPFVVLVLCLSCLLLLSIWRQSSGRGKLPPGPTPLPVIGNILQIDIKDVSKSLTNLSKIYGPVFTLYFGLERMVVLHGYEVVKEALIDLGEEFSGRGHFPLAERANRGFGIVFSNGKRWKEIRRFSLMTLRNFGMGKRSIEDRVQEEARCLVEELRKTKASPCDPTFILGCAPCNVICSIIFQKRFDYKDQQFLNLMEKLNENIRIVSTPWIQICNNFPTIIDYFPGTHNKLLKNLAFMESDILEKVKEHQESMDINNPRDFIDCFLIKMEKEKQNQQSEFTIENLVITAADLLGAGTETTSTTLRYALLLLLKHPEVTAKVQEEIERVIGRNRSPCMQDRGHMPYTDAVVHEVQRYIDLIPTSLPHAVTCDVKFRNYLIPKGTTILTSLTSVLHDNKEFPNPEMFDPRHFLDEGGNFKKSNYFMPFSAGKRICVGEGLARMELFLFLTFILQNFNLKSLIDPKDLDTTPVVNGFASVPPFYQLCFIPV

Row | Compound | IC50 [µM]
79 | CCOC(=O)c1c(N)sc2c1CCN(Cc1ccccc1)C2 [Tinoridine] | 0.71 ± 0.38
80 | CN(C/C=C/C#CC(C)(C)C)Cc1cccc2ccccc12 [terbinafine, reference compound] | 31.9

Same assay, conditions: CYP2C19 AC50 (half-maximal activity concentration)

Row | Compound | AC50 [µM]
81 | [O-][n+]1ccccc1SSc1cccc[n+]1[O-] [Dipyrithione] | 0.79
82 | Cl[C@H]1[C@H](Cl)[C@@H](Cl)[C@H](Cl)[C@@H](Cl)[C@H]1Cl [delta-Hexachlorocyclohexane] | 2.27

Same assay, conditions: CYP2C19 IC50

Row | Compound | IC50 [µM]
83 | Cc1cccc(Cc2c[nH]cn2)c1C [Detomidine hydrochloride] | 1.96
84 | [O-][n+]1ccccc1SSc1cccc[n+]1[O-] [Dipyrithione] | 0.79
85 | CC1=C(C)C(=O)C(CCCCC#CCCCC#CCO)=C(C)C1=O [Docebenone] | 11.4
86 | CCN(CC)CCOC(=O)C(c1ccccc1)C1CCCCC1 (centres unmarked) [Drofenine hydrochloride] | 18.8
87 | CC[n+]1c(-c2ccccc2)c2cc(N)ccc2c2ccc(N)cc21 [Ethidium bromide] | 13.1
88 | CCOC(=O)CC(SP(=S)(OC)OC)C(=O)OCC (centres unmarked) [Malathion] | 0.54
89 | Cc1cc(O)c2ccccc2c1O [Menadiol] | 13.4
90 | Nc1c(Cl)c(Cl)c(Cl)c(Cl)c1Cl [Pentachloroaniline] | 44
91 | CCCN1C[C@H](CSC)C[C@@H]2c3cccc4[nH]cc(c34)C[C@H]21 [Pergolide methanesulfonate] | 8.43
92 | CCOP(=S)(OCC)O/N=C(\C#N)c1ccccc1 [Phoxim] | 0.28
93 | c1cc2ccc3cccc4ccc(c1)c2c34 [Pyrene] | 24.3

Same assay, conditions: CYP2C19 IC50 (half-maximal inhibitory concentration)

Row | Compound | IC50 [µM]
94 | Nc1ccc2c(c1)CN1C(=O)c3ccccc3C1=N2 [Daniquidone] | 2.8
95 | CN1C[C@H](C(=O)N[C@]2(C)O[C@@]3(O)[C@@H]4CCCN4C(=O)[C@H](Cc4ccccc4)N3C2=O)C=C2c3cccc4[nH]cc(c34)C[C@H]21 [Ergotamine D-tartrate] | 37.4
96 | O=C(NCCc1c[nH]c2ccccc12)c1cccnc1 [Nicotredole] | 8.39
97 | c1ccc2c(c1)Nc1ccccc1S2 [Phenothiazine] | 4.3
98 | Cl[C@H]1[C@H](Cl)[C@@H](Cl)[C@H](Cl)[C@@H](Cl)[C@H]1Cl [delta-Hexachlorocyclohexane] | 2.27
